Laboratory results reported in paper PMC7318697 (2020).

How the values were obtained:
[1] = tested on: telo23 (DNA, G4) TAGGGTTAGGGTTAGGGTTAGGG; assay: UV/Vis titration; details: K+ (100 mM potassium phosphate), pH 7.4, ligand 10 μM; for K d: apparent, independent and equivalent sites
[2] = tested on: telo23 (DNA, G4) TAGGGTTAGGGTTAGGGTTAGGG; assay: 1H imino NMR titration; details: 20 mM potassium phosphate, 70 mM KCl; pH 7.0, 298 K, 90% H2O/10% D2O; DNA 185 μM
[3] = tested on: FmycT (DNA, G4) TTGAGGGTGGGTAGGGTGGGTAA; assay: FRET melting; details: 1 mM KCl, 99 mM LiCl; 10 mM Li cacodylate; ligand 5 μM; DNA 0.2 μM
[4] = tested on: F10T (DNA, hairpin, hexaethylene glycol (HEG) linker between nucleotides 10 and 11) TATAGCTATATATAGCTATA; assay: FRET melting; details: 10 mM KCl, 90 mM LiCl; 10 mM Li cacodylate; ligand 5 μM; DNA 0.2 μM
[5] = tested on: Febr1T (DNA, G4) GGGCAGGGGGTGATGGGGAGGAGCCAGGG; assay: FRET melting; details: 10 mM KCl, 90 mM LiCl; 10 mM Li cacodylate; ligand 5 μM; DNA 0.2 μM
[6] = tested on: F21T (DNA, G4) GGGTTAGGGTTAGGGTTAGGG; assay: FRET melting; details: 10 mM Li cacodylate, ligand 5 μM, DNA 0.2 μM

K d [1] [µM] | binding [2] | ΔT m [3] [°C] | ΔT m [4] [°C] | ΔT m [5] [°C] | ΔT m ([6]; 10 mM KCl, 90 mM LiCl) [°C] | ΔT m ([6]; 100 mM NaCl) [°C] | binding ([1]; Kd too weak for accurate determination) | Compound
2 | yes | 30 | 3 | 17 | 28 | 19 | – | C[n+]1ccc(-c2ccc3c(c2)CC/C3=C2/CCc3cc(-c4cc[n+](C)cc4)ccc32)cc1
– | yes | – | – | 22 | – | – | – | C[n+]1ccc(-c2ccc3c(c2)/C(=C2\CCc4ccc(-c5cc[n+](C)cc5)cc42)CC3)cc1
70 | yes | – | – | 9 | – | – | – | C[n+]1ccc(-c2ccc3c(c2)/C(=C2/CCc4ccc(-c5cc[n+](C)cc5)cc42)CC3)cc1

The remaining lines, values behind:

Compound | K d [1] [µM] | binding [2] | ΔT m [3] [°C] | ΔT m [4] [°C] | ΔT m [5] [°C] | ΔT m ([6]; 10 mM KCl, 90 mM LiCl) [°C] | ΔT m ([6]; 100 mM NaCl) [°C] | binding ([1]; Kd too weak for accurate determination)
CN1CCN(CCCNc2ccc3c(c2)/C(=C2\CCc4ccc(NCCCN5CCN(C)CC5)cc42)CC3)CC1 | 70 | – | – | – | – | 6 | – | –
CN1CCN(CCCNc2ccc3c(c2)/C(=C2/CCc4ccc(NCCCN5CCN(C)CC5)cc42)CC3)CC1 | – | – | 0 | 0 | – | 0 | 0 | weak
